Data published in US20160200733A1, “SUBSTITUTED THIENO[2,3-B]PYRIDINE-2-CARBOXAMIDE ANALOGS AS POSITIVE ALLOSTERIC MODULATORS OF THE MUSCARINIC ACETYLCHOLINE RECEPTOR M4” (Vanderbilt University, priority 2013, published 2016).

Target: T1, mAChR hM4 (Homo sapiens, UniProt P08173)
T1 construct: expressed in transfected cells; host or cells: CHO-K1 (Chinese hamster ovary) cells
T1 sequence (P08173 1-479): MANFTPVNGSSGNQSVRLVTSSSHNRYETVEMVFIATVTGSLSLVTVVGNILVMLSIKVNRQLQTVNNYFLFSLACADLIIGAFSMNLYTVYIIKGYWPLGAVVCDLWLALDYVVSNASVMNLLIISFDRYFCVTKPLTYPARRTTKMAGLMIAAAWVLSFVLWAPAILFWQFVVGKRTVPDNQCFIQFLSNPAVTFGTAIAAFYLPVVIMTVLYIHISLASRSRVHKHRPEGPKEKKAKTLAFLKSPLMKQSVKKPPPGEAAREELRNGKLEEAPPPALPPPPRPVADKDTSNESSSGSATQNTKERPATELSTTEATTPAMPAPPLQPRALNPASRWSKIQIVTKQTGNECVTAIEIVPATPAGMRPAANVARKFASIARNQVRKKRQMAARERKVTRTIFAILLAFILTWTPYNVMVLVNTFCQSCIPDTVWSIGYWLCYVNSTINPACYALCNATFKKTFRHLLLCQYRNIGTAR
Assay: mAChR M4 cell-based functional assay (calcium flux, potentiation of EC20 acetylcholine response)
Details: mAChR hM4 cell-line; for EC50: >10,000 estimated for low potency compounds lacking a plateau
From the text: In one aspect, the disclosed compounds potentiate the agonist response (e.g., acetylcholine) of mAChR M4. In a further aspect, the disclosed compounds increase mAChR M4 response to non-maximal concentrations of agonist in the presence of compound compared to the response to agonist in the absence of compound. […] For example, activation of mAChR M4 activity can be determined by measurement of calcium flux in response to agonist, e.g. acetylcholine, in cells loaded with a Ca^2+-sensitive fluorescent dye (e.g., Fluo-4). In a further aspect, the calcium flux was measured as an increase in fluorescent static ratio. In a yet further aspect, positive allosteric modulator activity was analyzed as a concentration-dependent increase in the EC20 acetylcholine response (i.e. the response of mAChR M4 at a concentration of acetylcholine that yields 20% of the maximal response).
In one aspect, the disclosed compounds activate mAChR M4 response as an increase in calcium fluorescence in mAChR M4-transfected CHO-K1 cells in the presence of the compound, compared to the response of equivalent CHO-K1 cells in the absence of the compound. […] In a further aspect, the mAChR M4-transfected CHO-K1 cells are transfected with human mAChR M4. In a still further aspect, the mAChR M4-transfected CHO-K1 cells are transfected with rat mAChR M4.
Substituted 3-aminothieno[2,3-c]pyridine-2-carboxamide analogs were synthesized as described above. Activity (EC50 and Emax) was determined in the mAChR M4 cell-based functional assay as described above, and the data are shown in Table II for assays conducted using mAChR hM4 cell-line. The compound number corresponds to the compound numbers used in Table I.

| SMILES | EC50 | Emax at 30 µM (% ACh maximum at 30 μM) | Emax (%) (% ACh maximum at 30 μM) |
| --- | --- | --- | --- |
| Cc1nc2sc(C(=O)N3CCCN(C)CC3)c(-c3cnn(C)c3)c2c(C)c1Cl [Compound 113, (5-chloro-4,6-dimethyl-3-(1-methyl-1H-pyrazol-4-yl)thieno[2,3-b]pyridin-2-yl)(4-methyl-1,4-diazepan-1-yl)methanone] | > 10 µM |  |  |
| Cc1nc2sc(C(=O)NC3CC3)c(Cl)c2c(C)c1Cl [Compound 118, 3,5-dichloro-N-cyclopropyl-4,6-dimethylthieno[2,3-b]pyridine-2-carboxamide] | 1.5 µM | 56% |  |
| Cc1cnc2sc(C(=O)NC3COC3)cc2c1C [Compound 102, 4,5-dimethyl-N-(oxetan-3-yl)thieno[2,3-b]pyridine-2-carboxamide] | > 10 µM | 60% |  |
| Cc1cc(C)c2c(Br)c(C(=O)NC3CCOC3)sc2n1 (stereo not drawn) [Compound 7, 3-bromo-4,6-dimethyl-N-(tetrahydrofuran-3-yl)thieno[2,3-b]pyridine-2-carboxamide] | > 10 µM |  |  |
| Cc1nc2sc(C(=O)NC3CCOC3)c(Cl)c2c(C)c1Cl (stereo not drawn) [Compound 124, 3,5-dichloro-4,6-dimethyl-N-(tetrahydrofuran-3-yl)thieno[2,3-b]pyridine-2-carboxamide] | 1.2 µM | 43% |  |
| Cc1cc(C)c2c(C)c(C(=O)NC3CCOCC3)sc2n1 [Compound 26, 3,4,6-trimethyl-N-(tetrahydro-2H-pyran-4-yl)thieno[2,3-b]pyridine-2-carboxamide] | > 10 µM | 44% |  |
| Cc1cc(C)c2c(C)c(C(=O)NC3CC3)sc2n1 [Compound 18, N-cyclopropyl-3,4,6-trimethylthieno[2,3-b]pyridine-2-carboxamide] | > 10 µM | 73% |  |
| Cc1cc(C)c2cc(C(=O)NC3COC3)sc2n1 [Compound 74, 4,6-dimethyl-N-(oxetan-3-yl)thieno[2,3-b]pyridine-2-carboxamide] | > 10 µM | 46% |  |
| Cc1nc2sc(C(=O)NC3COC3)c(-c3cccs3)c2c(C)c1Cl [Compound 115, 5-chloro-4,6-dimethyl-N-(oxetan-3-yl)-3-(thiophen-2-yl)thieno[2,3-b]pyridine-2-carboxamide] | > 10 µM |  |  |
| Cc1cc(C)c2cc(C(=O)NCc3ccc(S(=O)(=O)C(F)(F)F)cc3)sc2n1 [Compound 85, 4,6-dimethyl-N-(4-((trifluoromethyl)sulfonyl)benzyl)thieno[2,3-b]pyridine-2-carboxamide] | > 10 µM |  |  |
| Cc1cc(C)c2c(Br)c(C(=O)NC3CCC3)sc2n1 [Compound 6, 3-bromo-N-cyclobutyl-4,6-dimethylthieno[2,3-b]pyridine-2-carboxamide] | > 10 µM | 41% |  |
| Cc1cc(C)c2c(-c3cnn(C)c3)c(C(=O)NCc3ccc4c(c3)CCO4)sc2n1 [Compound 70, N-((2,3-dihydrobenzofuran-5-yl)methyl)-4,6-dimethyl-3-(1-methyl-1H-pyrazol-4-yl)thieno[2,3-b]pyridine-2-carboxamide] | > 10 µM |  |  |
| Cc1nc2sc(C(=O)NC3CC3)c(C)c2c(C)c1Cl [Compound 60, 5-chloro-N-cyclopropyl-3,4,6-trimethylthieno[2,3-b]pyridine-2-carboxamide] | 0.38 µM | 79% |  |
| Cc1nc2sc(C(=O)NC3CCS(=O)(=O)C3)c(C)c2c(C)c1Cl (stereo not drawn) [Compound 59, 5-chloro-N-(1,1-dioxidotetrahydrothiophen-3-yl)-3,4,6-trimethylthieno[2,3-b]pyridine-2-carboxamide] | 0.95 µM | 45% |  |
| Cc1cc(C)c2c(C)c(C(=O)NCc3ccc4c(c3)OCCO4)sc2n1 [Compound 31, N-((2,3-dihydrobenzo[b][1,4]dioxin-6-yl)methyl)-3,4,6-trimethylthieno[2,3-b]pyridine-2-carboxamide] | 2.2 µM | 57% |  |
| Cc1nc2sc(C(=O)N3CCCOCC3)c(-c3cnn(C)c3)c2c(C)c1Cl [Compound 106, (5-chloro-4,6-dimethyl-3-(1-methyl-1H-pyrazol-4-yl)thieno[2,3-b]pyridin-2-yl)(1,4-oxazepan-4-yl)methanone] | > 10 µM |  |  |

| SMILES | EC50 | Emax at 30 µM (% ACh maximum at 30 μM) | Emax (%) (% ACh maximum at 30 μM) |
| --- | --- | --- | --- |
| Cc1nc2sc(C(=O)NC3COC3)c(C)c2c(C)c1Cl [Compound 63, 5-chloro-3,4,6-trimethyl-N-(oxetan-3-yl)thieno[2,3-b]pyridine-2-carboxamide] | 0.41 µM | 76% |  |
| Cc1nc2sc(C(=O)NCC(C)(C)O)c(C3CC3)c2c(C)c1Cl [Compound 50, 5-chloro-3-cyclopropyl-N-(2-hydroxy-2-methylpropyl)-4,6-dimethylthieno[2,3-b]pyridine-2-carboxamide] | > 10 µM | 43% |  |
| Cc1cc(C)c2cc(C(=O)NC3CN(c4ccc(C(F)(F)F)nc4)C3)sc2n1 [Compound 76, 4,6-dimethyl-N-(1-(6-(trifluoromethyl)pyridin-3-yl)azetidin-3-yl)thieno[2,3-b]pyridine-2-carboxamide] | > 10 µM |  |  |
| Cc1nc2sc(C(=O)NC3CCOC3)c(C)c2c(C)c1Cl (stereo not drawn) [Compound 57, 5-chloro-3,4,6-trimethyl-N-(tetrahydrofuran-3-yl)thieno[2,3-b]pyridine-2-carboxamide] | 1.2 µM | 79% |  |
| Cc1cc(C)c2c(Br)c(C(=O)NC3COC3)sc2n1 [Example 2, 3-bromo-4,6-dimethyl-N-(oxetan-3-yl)thieno[2,3-b]pyridine-2-carboxamide] | 3.3 µM | 68% |  |
| Cc1nc2sc(C(=O)N[C@H](C)C3CC3)c(-c3cnn(C)c3)c2c(C)c1Cl [Compound 96, (R)-5-chloro-N-(1-cyclopropylethyl)-4,6-dimethyl-3-(1-methyl-1H-pyrazol-4-yl)thieno[2,3-b]pyridine-2-carboxamide] | > 10 µM |  |  |
| Cc1nc2sc(C(=O)NC3COC3)c(-c3ccsc3)c2c(C)c1Cl [Compound 117, 5-chloro-4,6-dimethyl-N-(oxetan-3-yl)-3-(thiophen-3-yl)thieno[2,3-b]pyridine-2-carboxamide] | > 10 µM |  |  |
| Cc1nc2sc(C(=O)NC3COC3)c(Br)c2c(C)c1Cl [Compound 61, 3-bromo-5-chloro-4,6-dimethyl-N-(oxetan-3-yl)thieno[2,3-b]pyridine-2-carboxamide] | 0.36 µM |  | 70% |
| Cc1nc2sc(C(=O)NC3CCOC3)c(Br)c2c(C)c1Cl (stereo not drawn) [Compound 44, 3-bromo-5-chloro-4,6-dimethyl-N-(tetrahydrofuran-3-yl)thieno[2,3-b]pyridine-2-carboxamide] | 0.59 µM | 54% |  |
| COc1ccc(C2CC2NC(=O)c2cc3c(C)cc(C)nc3s2)cc1 (stereo not drawn) [Compound 81, N-(2-(4-methoxyphenyl)cyclopropyl)-4,6-dimethylthieno[2,3-b]pyridine-2-carboxamide] | 0.82 µM | 30% |  |
| Cc1cc(C)c2c(C#N)c(C(=O)NCc3ccc(S(C)(=O)=O)cc3)sc2n1 [Compound 33, 3-cyano-4,6-dimethyl-N-(4-(methylsulfonyl)benzyl)thieno[2,3-b]pyridine-2-carboxamide] | > 10 µM |  |  |
| Cc1nc2sc(C(=O)NCc3ccc4c(c3)CCO4)c(Br)c2c(C)c1Cl [Compound 46, 3-bromo-5-chloro-N-((2,3-dihydrobenzofuran-5-yl)methyl)-4,6-dimethylthieno[2,3-b]pyridine-2-carboxamide] | > 10 µM |  |  |
| Cc1nc2sc(C(=O)NC3COC3)c(-c3ccc4nonc4c3)c2c(C)c1Cl [Compound 114, 3-(benzo[c][1,2,5]oxadiazol-5-yl)-5-chloro-4,6-dimethyl-N-(oxetan-3-yl)thieno[2,3-b]pyridine-2-carboxamide] | > 10 µM |  |  |
| Cc1cc(C)c2cc(C(=O)NCc3ccc(-c4cccnc4F)cc3)sc2n1 [Compound 78, N-(4-(2-fluoropyridin-3-yl)benzyl)-4,6-dimethylthieno[2,3-b]pyridine-2-carboxamide] | > 10 µM | 34% |  |
| CSc1ccc(CNC(=O)c2sc3nc(C)cc(C)c3c2C)cc1 [Compound 27, 3,4,6-trimethyl-N-(4-(methylthio)benzyl)thieno[2,3-b]pyridine-2-carboxamide] | 2.2 µM | 49% |  |
| Cc1nc2sc(C(=O)NCc3ccc(S(C)(=O)=O)cc3)c(Br)c2c(C)c1Cl [Compound 45, 3-bromo-5-chloro-4,6-dimethyl-N-(4-(methylsulfonyl)benzyl)thieno[2,3-b]pyridine-2-carboxamide] | > 10 µM |  |  |
